Experimental data reported in patent US20250243407A1, “LIQUID CRYSTAL COMPOSITION, OPTICALLY ANISOTROPIC FILM, OPTICAL FILM, POLARIZING PLATE, IMAGE DISPLAY APPARATUS, AND POLYMERIZABLE COMPOUND” (FUJIFILM Corporation, priority 2022, published 2025).

Experiments:
[1] = Liquid crystallinity: phase transition temperature measured using a polarization microscope; type: physicochemical
Experimental: A phase transition temperature of the prepared liquid crystal composition was measured using a polarization microscope.

[2] = Solubility: presence or absence of precipitation over time in cyclopentanone/methyl ethyl ketone; type: physicochemical; conditions: 50 mg, cyclopentanone/methyl ethyl ketone 3/1 by weight, solid content 30 wt %, dissolved at 60° C., cooled to room temperature (25° C.), visual precipitation over time
Experimental: 50 mg of each of the liquid crystal compositions prepared in a 1.5 mL sample bottle was weighed, and a solvent (mixture of cyclopentanone/methyl ethyl ketone at a weight ratio of 3/1) was added thereto until the solid content was 30 wt % ([…]).
Next, the mixture was heated to 60° C. and stirred to be dissolved, cooled to room temperature (25° C.), and the presence or absence of precipitation was visually confirmed over time after cooling and evaluated according to the following standard.
C: precipitation occurred within 24 hours at room temperature.

In the case of C=CC(=O)OCC(C)(C)COC(=O)CCC(=O)OCCc1ccc(OC(=O)C2CCC(C(=O)Oc3c(C(C)(C)C)cc(OC(=O)C4CCC(C(=O)Oc5cc(C(C)(C)C)c(OC(=O)C6CCC(C(=O)Oc7ccc(CCOC(=O)CCC(=O)OCC(C)(C)COC(=O)C=C)cc7)CC6)c6c5SC(=C(C#N)C#N)S6)CC4)c4c3SC(=C(C#N)C#N)S4)CC2)cc1 (centres unmarked) [Comparative Example 1], the “Liquid crystallinity: phase transition temperature between isotropic liquid (Iso) and crystal (Cr)” value [1] was “Iso 178 Cr ° C” and the Solubility [2] was “C (precipitation occurred within 24 hours at room temperature)”.
